Results as given in ChEMBL document CHEMBL1201862, “PubChem BioAssay data set” (2004).
Calls of active or inactive are those of the source.

Tests used:
[1] = molecular target: T1, Heat shock factor protein 1 (Mus musculus, UniProt P38532); assay: decrease of HSF1-responsive luciferase luminescence – cell-based, NIH3T3, dose retest, confirmation (AID 2382); format: functional;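 further: NIH3T3 fibroblasts with HSF1-driven luciferase reporter stressed by proteasome inhibitor MG132; luminescence from HSF1-driven luciferase expression after 8 hours of MG132 stress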
T1 sequence (P38532 whole entry): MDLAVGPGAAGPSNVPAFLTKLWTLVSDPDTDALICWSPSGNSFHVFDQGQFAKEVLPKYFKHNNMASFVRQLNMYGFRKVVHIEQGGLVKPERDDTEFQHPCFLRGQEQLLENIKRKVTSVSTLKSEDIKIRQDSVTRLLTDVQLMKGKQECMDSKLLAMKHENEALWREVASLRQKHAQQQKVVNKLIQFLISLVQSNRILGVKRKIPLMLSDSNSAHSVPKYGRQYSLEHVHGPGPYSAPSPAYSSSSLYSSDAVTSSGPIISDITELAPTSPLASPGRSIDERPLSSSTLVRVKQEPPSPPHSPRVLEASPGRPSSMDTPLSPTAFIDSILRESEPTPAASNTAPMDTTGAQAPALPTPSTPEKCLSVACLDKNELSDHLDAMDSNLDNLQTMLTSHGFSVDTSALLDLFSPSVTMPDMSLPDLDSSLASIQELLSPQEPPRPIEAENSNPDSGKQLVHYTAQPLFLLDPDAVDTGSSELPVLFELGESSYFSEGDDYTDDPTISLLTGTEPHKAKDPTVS

[2] = Luminescence Cell-Based Dose Response HTS to Identify Inhibitors of 5'UTR Stem-Loop Driven Prion Protein mRNA Translation in H4 Neuroglioblastoma Cells. [Related pubchem assays: 1827 (Project Summary), 1813 (Primary HTS)]; format: functional
[3] = luciferase reporter signal suppression in cells – H4 neuroglioma cells, luminescence, dose response (AID 1990); format: functional, cell-based
[4] = HEK-293T viability loss after treatment – luminescence, T-cell screen hits, cytotoxicity control for TCR NF-kB inhibitor project, dose response (AID 489026); format: functional, cell-based;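 further: cells exposed to compound about 14 hours before the viability readout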
[5] = alpha-synuclein stem-loop luciferase translation blockers – H4 neuroglioma cells, luminescence, confirmation (AID 1988); format: functional, cell-based
[6] = luciferase reporter signal reduction – luminescence, H4-C neuroglioblastoma cells, dose response (AID 2458); format: functional, cell-based;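 further: H4 neuroglioblastoma cells stably carrying a luciferase reporter gene fusion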
[7] = alpha-synuclein stem-loop translation blockers – luminescence, H4 neuroglioblastoma cells, dose confirmation, confirmation (AID 2454); format: functional, cell-based;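 further: H4 neuroglioblastoma cells carrying an alpha-synuclein 5'UTR luciferase reporter; potency for inhibition of the luciferase signal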
cells [8] = format: functional, cell-based
[9] = molecular target: T2, Neuropeptide Y receptor type 1 (Homo sapiens, UniProt P25929); format: functional;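 further: HEK293 cells with a CNG channel challenged with NPY then isoproterenol; potency as antagonist that reverses NPY suppression of cAMP signal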
T2 sequence (P25929 whole entry): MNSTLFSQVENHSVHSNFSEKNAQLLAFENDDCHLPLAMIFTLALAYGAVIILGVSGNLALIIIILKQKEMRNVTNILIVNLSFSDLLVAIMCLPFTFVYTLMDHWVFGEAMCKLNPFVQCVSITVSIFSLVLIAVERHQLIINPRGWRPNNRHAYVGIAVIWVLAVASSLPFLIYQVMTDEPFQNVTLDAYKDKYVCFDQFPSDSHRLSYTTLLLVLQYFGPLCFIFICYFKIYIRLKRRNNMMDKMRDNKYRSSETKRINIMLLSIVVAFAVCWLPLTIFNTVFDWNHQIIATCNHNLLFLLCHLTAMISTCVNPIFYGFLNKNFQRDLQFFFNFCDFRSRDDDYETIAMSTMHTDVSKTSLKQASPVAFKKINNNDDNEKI

[10] = molecular target: T3, Neuropeptide Y receptor type 2 (Homo sapiens, UniProt P49146); format: functional, cell-based;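 further: HEK293 cells expressing the receptor and a CNG channel; stimulus was NPY near EC95 followed by isoproterenol to raise cAMP; antagonist potency measured as restoring cAMP signal that NPY suppresses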
T3 sequence (P49146 whole entry): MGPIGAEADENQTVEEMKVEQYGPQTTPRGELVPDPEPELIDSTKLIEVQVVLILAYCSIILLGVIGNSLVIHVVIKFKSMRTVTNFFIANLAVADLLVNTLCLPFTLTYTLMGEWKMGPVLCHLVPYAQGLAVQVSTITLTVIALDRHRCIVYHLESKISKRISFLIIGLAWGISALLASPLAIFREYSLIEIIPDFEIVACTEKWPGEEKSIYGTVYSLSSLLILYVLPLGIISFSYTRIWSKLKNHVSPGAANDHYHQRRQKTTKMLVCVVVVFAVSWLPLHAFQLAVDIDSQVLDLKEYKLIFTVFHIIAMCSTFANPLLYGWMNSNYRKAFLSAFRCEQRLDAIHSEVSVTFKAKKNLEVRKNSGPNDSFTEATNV

cells [11] = format: functional
[12] = HepG2 cell cytotoxicity, dose response, cytotoxicity control for non-replicating M. tuberculosis project (AID 489018); format: functional; settings: Mycobacterium tuberculosis
[13] = THP-1 cell cytotoxicity, dose response, cytotoxicity control for non-replicating M. tuberculosis project (AID 489025); format: functional
Trypsin = Trypsin (Sus scrofa, UniProt P00761); assay: trypsin protease activity blockade – biochemical, quenched peptide fluorescence, cherry-pick, selectivity assay for Rce1 protease inhibitor project, dose response (AID 488789)
Chain of Trypsin (P00761 whole entry): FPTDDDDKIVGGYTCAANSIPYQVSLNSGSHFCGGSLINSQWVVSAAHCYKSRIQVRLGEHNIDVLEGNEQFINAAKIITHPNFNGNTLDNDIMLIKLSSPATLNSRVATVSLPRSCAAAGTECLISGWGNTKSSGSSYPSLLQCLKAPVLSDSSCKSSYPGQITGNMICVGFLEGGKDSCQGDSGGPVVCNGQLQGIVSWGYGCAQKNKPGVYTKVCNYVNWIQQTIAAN

[14] = molecular target: T4, Luciferin 4-monooxygenase (Photinus pyralis, UniProt P08659); assay: Counter Screen for Luciferase-based Assay Positives. [Related pubchem assays: 620, 618, 411 ]
T4 sequence (P08659 whole entry): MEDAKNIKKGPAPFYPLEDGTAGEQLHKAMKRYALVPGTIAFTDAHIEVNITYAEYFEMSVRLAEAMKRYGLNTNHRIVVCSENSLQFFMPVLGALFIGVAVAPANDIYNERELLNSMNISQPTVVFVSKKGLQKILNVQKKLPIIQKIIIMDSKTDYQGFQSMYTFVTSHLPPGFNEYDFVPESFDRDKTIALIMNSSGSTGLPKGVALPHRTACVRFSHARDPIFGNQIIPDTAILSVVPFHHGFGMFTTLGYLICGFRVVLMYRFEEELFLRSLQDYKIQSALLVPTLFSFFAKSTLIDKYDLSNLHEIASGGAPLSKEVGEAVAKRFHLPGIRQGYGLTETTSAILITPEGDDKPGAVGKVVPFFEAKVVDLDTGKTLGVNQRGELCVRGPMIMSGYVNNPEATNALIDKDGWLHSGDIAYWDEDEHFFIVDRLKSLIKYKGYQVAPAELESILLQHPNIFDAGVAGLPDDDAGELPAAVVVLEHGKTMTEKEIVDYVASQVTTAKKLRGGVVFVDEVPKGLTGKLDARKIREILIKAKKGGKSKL

HT-1080 = assay: HT1080 cell viability loss – fluorescence readout (AID 620); format: functional, cell-based; settings: Homo sapiens
[15] = molecular target: T5, Rac GTPase-activating protein 1 (Homo sapiens, UniProt Q9H0H5); assay: blockers of MgcRacGAP-driven Rac1 GTP hydrolysis – biochemical, ADP Hunter fluorescence, primary and confirmatory, confirmation (AID 624330); format: functional
T5 sequence (Q9H0H5 whole entry): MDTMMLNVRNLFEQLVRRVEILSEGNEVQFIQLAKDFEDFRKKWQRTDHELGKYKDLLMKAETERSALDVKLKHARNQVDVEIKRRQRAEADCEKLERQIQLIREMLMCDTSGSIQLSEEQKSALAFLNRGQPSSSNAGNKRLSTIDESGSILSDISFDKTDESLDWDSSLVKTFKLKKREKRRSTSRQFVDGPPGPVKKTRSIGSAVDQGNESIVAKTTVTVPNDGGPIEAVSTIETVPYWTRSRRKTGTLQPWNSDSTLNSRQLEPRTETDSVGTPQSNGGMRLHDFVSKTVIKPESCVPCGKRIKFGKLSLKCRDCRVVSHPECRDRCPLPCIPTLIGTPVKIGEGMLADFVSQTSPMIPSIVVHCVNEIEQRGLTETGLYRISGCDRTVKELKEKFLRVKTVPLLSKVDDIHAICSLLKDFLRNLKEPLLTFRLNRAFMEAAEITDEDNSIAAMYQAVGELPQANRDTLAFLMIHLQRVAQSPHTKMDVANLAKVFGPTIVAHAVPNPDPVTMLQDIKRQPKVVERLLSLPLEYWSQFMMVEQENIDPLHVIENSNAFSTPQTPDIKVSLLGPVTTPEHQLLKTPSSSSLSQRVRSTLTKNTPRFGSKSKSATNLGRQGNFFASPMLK

[16] = reduction of Shn3 3'UTR-driven luciferase in osteoblasts – cell-based, Clone20 osteoblasts, firefly luciferase, cherry-picked, dose response (AID 624132); format: functional;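 further: firefly luciferase luminescence from reporter carrying the Shn3 3'UTR in osteoblasts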
[17] = loss of viability in HepG2 cells – cell-based, CellTiter-Glo, cherry-picked, cytotoxicity control for Shn3 inhibitor project, dose response (AID 624134); format: functional
[18] = Luminescence Cell-Based Dose Confirmation HTS to Identify Inhibitors of Platelet Dense Granule Release. [Related pubchem assays: 1663 (Primary HTS), 1678 (Summary of Project)]; format: functional
[19] = molecular target: T4, Luciferin 4-monooxygenase; assay: inhibition of purified Photinus pyralis luciferase – biochemical, luminescence, dose response (AID 1891)
HEK293 = assay: EBV LMP1 TES2 canonical NF-kB signalling blockers – cell-based, HEK293, luciferase, cherry-pick, dose response (AID 588343); format: functional; settings: Homo sapiens
Aminopeptidase N = molecular target: T6, Aminopeptidase N (Plasmodium falciparum FcB1/Columbia, UniProt O96935); assay: malaria alanyl aminopeptidase activity blockers – biochemical, fluorogenic H-Leu-NHMec substrate, 1536-well (AID 1445); design: species or system Plasmodium falciparum 3D7, 3D7
T6 sequence (O96935 whole entry): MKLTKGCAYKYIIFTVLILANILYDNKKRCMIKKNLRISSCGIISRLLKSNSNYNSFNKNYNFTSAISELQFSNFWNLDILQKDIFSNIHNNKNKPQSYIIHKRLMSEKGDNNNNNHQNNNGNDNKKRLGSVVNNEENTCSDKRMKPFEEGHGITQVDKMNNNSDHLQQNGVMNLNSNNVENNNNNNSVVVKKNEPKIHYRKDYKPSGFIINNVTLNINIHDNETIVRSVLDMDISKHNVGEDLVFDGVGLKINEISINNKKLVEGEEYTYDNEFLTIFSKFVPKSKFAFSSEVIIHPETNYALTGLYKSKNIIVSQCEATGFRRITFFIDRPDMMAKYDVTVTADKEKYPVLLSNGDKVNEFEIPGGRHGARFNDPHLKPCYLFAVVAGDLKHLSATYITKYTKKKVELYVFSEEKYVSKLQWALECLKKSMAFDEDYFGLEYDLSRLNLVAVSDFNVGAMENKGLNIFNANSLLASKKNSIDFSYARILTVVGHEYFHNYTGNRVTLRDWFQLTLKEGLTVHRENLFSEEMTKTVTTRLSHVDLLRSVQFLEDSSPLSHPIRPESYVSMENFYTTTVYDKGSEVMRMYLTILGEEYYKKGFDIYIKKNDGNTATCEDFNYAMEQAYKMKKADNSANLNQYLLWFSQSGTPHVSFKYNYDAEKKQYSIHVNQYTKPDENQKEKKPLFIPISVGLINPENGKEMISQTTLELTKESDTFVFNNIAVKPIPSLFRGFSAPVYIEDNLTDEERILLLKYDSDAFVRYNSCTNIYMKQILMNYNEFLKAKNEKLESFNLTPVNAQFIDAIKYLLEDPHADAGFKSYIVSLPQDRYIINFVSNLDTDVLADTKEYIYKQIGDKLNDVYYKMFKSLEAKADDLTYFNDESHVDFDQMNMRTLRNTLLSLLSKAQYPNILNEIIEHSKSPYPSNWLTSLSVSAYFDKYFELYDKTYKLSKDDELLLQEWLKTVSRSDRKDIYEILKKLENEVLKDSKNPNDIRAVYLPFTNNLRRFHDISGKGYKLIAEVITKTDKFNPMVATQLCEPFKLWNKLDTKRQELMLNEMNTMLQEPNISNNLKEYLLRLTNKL

[20] = molecular target: T7, Voltage-gated N-type calcium channel alpha-1B subunit/Amyloid beta A4 precursor protein-binding family A member 1 (Homo sapiens, UniProt Q00975+Q02410); format: protein assay
T7 sequence (Q00975 whole entry): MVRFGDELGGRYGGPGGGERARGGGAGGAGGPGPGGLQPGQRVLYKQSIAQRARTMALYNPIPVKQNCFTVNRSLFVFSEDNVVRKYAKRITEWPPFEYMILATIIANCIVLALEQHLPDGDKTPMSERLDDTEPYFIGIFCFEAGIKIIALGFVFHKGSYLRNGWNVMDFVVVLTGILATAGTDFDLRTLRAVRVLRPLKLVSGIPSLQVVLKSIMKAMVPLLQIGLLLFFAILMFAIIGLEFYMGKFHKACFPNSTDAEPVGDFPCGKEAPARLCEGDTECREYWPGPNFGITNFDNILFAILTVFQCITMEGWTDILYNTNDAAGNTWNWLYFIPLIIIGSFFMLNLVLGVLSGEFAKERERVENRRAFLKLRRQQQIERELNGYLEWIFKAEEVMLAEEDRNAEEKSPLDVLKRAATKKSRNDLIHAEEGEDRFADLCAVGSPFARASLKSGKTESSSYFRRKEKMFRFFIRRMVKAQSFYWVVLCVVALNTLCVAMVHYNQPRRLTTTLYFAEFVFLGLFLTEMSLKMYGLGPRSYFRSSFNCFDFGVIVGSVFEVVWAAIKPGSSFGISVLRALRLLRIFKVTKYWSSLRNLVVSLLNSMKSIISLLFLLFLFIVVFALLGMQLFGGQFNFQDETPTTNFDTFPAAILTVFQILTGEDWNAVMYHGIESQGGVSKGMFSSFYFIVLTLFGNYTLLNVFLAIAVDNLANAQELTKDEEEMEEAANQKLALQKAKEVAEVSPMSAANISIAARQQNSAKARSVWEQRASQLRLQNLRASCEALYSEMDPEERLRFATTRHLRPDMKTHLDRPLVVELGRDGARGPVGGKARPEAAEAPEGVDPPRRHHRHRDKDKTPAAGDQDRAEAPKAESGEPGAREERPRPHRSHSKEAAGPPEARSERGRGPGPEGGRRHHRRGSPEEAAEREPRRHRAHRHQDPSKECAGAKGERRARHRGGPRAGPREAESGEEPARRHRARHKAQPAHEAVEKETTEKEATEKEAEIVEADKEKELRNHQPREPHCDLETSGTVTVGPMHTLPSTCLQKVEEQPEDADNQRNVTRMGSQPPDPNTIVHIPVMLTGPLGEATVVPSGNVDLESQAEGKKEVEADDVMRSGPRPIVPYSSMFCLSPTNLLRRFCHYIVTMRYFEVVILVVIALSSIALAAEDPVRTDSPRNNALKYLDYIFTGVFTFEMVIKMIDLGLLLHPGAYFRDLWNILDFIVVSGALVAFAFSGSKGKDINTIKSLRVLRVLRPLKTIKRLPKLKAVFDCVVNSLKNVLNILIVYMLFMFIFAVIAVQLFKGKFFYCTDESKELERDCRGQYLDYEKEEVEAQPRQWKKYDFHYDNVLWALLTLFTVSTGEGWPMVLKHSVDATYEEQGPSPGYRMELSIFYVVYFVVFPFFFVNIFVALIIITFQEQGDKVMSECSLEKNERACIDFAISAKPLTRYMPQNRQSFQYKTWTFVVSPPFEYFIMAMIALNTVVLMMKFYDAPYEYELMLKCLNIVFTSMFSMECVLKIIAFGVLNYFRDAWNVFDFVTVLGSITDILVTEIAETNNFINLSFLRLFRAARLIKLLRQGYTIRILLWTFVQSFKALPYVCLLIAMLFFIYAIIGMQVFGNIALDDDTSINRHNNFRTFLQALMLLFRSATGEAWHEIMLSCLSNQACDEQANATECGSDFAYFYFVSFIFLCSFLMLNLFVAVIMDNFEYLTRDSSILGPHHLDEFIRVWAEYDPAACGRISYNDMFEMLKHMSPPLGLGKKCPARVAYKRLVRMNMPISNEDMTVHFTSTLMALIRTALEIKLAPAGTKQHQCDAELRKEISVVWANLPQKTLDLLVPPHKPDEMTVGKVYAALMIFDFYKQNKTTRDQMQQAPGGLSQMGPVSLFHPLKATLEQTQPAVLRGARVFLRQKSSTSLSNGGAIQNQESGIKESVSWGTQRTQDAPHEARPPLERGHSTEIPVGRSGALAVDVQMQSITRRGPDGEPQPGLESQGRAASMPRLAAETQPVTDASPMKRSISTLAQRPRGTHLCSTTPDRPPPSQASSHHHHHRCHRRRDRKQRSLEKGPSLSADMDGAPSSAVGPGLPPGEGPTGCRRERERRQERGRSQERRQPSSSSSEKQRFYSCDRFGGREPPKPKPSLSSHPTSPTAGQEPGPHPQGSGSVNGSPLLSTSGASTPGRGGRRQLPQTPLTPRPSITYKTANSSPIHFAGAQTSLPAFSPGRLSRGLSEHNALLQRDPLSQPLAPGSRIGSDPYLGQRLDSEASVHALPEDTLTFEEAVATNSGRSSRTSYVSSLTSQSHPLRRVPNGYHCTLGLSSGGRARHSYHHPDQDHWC
T7 sequence (Q02410 whole entry): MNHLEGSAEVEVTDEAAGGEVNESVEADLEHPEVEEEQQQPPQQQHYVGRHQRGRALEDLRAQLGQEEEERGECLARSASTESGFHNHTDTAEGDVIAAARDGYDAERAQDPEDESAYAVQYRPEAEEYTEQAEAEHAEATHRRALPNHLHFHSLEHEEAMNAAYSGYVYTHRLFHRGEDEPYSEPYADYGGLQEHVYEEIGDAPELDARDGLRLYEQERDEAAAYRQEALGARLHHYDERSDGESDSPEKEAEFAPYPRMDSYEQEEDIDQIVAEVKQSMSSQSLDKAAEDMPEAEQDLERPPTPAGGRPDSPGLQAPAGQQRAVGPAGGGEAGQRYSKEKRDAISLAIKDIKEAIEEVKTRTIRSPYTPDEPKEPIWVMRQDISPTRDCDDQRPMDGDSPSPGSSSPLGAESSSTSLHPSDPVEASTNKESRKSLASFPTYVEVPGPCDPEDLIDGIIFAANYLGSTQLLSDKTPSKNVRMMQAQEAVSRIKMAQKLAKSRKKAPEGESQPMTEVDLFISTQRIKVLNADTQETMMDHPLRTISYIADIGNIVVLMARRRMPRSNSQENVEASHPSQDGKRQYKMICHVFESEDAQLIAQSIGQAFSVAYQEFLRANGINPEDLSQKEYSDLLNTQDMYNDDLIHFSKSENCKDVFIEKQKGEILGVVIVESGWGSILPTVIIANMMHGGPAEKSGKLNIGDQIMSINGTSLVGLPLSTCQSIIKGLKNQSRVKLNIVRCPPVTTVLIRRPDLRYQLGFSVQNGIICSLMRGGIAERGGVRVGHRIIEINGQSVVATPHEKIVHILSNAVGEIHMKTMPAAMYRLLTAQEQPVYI

[21] = molecular target: T7, Voltage-gated N-type calcium channel alpha-1B subunit/Amyloid beta A4 precursor protein-binding family A member 1; format: protein assay; remark: listed apart in the source
[22] = molecular target: T8, Calpain-2 catalytic subunit (Sus scrofa, UniProt P43367); assay: m-calpain protease blockers, concentration series – biochemical, fluorogenic peptide substrate, dose response (AID 1420); format: functional
T8 sequence (P43367 whole entry): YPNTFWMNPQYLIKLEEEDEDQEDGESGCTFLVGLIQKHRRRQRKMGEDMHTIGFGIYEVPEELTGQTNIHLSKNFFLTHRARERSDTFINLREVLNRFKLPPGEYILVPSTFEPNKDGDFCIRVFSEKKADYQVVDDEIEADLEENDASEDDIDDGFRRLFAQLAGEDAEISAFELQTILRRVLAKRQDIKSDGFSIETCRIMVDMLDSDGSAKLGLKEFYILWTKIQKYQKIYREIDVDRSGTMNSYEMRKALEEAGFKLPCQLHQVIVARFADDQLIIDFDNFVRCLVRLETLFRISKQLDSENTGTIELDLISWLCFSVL

O=[N+]([O-])c1nn(-c2ccc3c(c2)OCCO3)[n+]([O-])c1Nc1ccccc1
EC50 [1]: < 0.16 µM (active) | EC50 [2]: < 0.1 µM (active) | EC50 [3]: < 0.1 µM (active) | IC50 [4]: > 80 µM (inactive) | EC50 [5]: < 0.1 µM (active) | EC50 [6]: 0.098 µM (active) | EC50 [7]: 0.09 µM (active) | EC50 (cells [8]): 4.89 µM (active)

CCCCOc1nc2ccccc2c(=O)n1-c1ccccc1
IC50 [9]: 13.2 µM (not active) | IC50 [10]: 8.15 µM (active)

N=c1n(CCN2CCCCC2)c2ccccc2n1CC(=O)c1ccc(Cl)c(Cl)c1
IC50 (cells [11]): 23.9 µM (active) | CC50 [12]: 11.9 µM (active) | CC50 [13]: 18.2 µM (active)

O=C1OCCN1C(=O)[C@H]1[C@H](c2ccc(F)cc2)C(c2ccc(F)cc2)=NN1c1ccc(Br)cc1
AC50 (Trypsin): 14.1 µM (active)

CNc1nnc(-c2ccc(N(C)C)cc2)s1
EC50 [14]: 2.54 µM (active) | EC50 (HT-1080): > 50 µM (not active) | IC50 [15]: 99.3 µM (active)

Cc1ccc(NC(=O)C(=O)NCCOc2ccc(Cl)cc2)c(C)c1
IC50 [9]: 7.39 µM (active) | IC50 [10]: 7.41 µM (active)

O=C(Nc1nc2cc3c(cc2s1)OCCO3)C1=COCCO1
EC50 [1]: 1.74 µM (active) | AC50 [16]: 2.17 µM (active) | EC50 [2]: < 0.1 µM (active) | AC50 [17]: 18.1 µM (active) | EC50 [3]: < 0.1 µM (active) | EC50 [18]: 5.65 µM (active) | EC50 [5]: < 0.1 µM (active) | EC50 [6]: 0.432 µM (active) | EC50 [7]: 0.411 µM (active) | EC50 (cells [8]): 0.669 µM (active) | EC50 [19]: 1.58 µM (active)

O=C(NC1=NCCS1)c1cc2ccccc2o1
AC50 (HEK293): 3.65 µM (active) | EC50 [14]: 59.1 µM (active) | EC50 (HT-1080): > 50 µM (not active)

CSCCC(C(=O)NC1=NCCS1)N1C(=O)c2ccccc2C1=O (stereo not drawn)
IC50 (Aminopeptidase N): 17.8 µM (active)

O=C(NCc1ccc2c(c1)OCO2)C1CCCN1C(=O)Nc1cccc(F)c1 (stereo not drawn)
IC50 (Aminopeptidase N): 75 µM (active)

O=C(O)c1ccc(Nc2nc(-c3cc4ccccc4oc3=O)cs2)cc1O
IC50 [20]: > 50 µM (inactive) | IC50 (Aminopeptidase N): 9.7 µM (active) | IC50 [21]: 7.29 µM (active)

c1ccc(-c2noc(-c3cccs3)n2)nc1
EC50 [14]: > 100 µM (not active) | EC50 (HT-1080): > 50 µM (not active)

Cc1nc(-c2ccccc2)sc1C(=O)CSc1ccc(Cl)cc1
IC50 [9]: 5.4 µM (active) | IC50 [10]: 6.99 µM (active) | IC50 [22]: 11.7 µM (not active)
